SMILES strings stand for the structures.

For the experiment, the system named is HCV replicon in the 5-15 subline of Huh-7 cells. Description: Replicon ELISA (HCV replicon assay). The class given is cell-based, hepatitis C virus (HCV 1b). The note with it: Hepatitis C virus; Huh-7 5-15 cells, HCV 1b replicon, 72 hours, NS4a ELISA. From the text: The 5-15 subline of Huh-7 cells (Lohmann, V., Korner, F., Koch, J-O., Herian, U., Theilmann, L. & Bartenschlager, R., 1999, Science, 2, pp 110-113) were used for these assays. These are human hepatocellular carcinoma cells stably transfected with an HCV replicon comprising the majority of the HCV 1b genome with the addition of a selectable marker gene, but lacking the genes encoding for all structural proteins and non-structural protein (NS) 2. The replicon RNA is self-replicating and fully functional viral proteins are translated from it. A quantifiable and specific reduction of expressed protein in the presence of a drug can be used as a measure of replicon inhibition.
Stock solutions of compound samples were formulated to 40 mM in DMSO. […]
ELISA step: Growth medium was removed from the plate and the cell monolayers were washed gently once with phosphate buffered saline (PBS) prior to fixing with a 1:1 mix of acetone:methanol for 5 minutes. […] The reaction was stopped by the addition of 25 μl per well of 2M sulphuric acid and the plates were read spectrophotometrically at 490 nm. […]
The absorbance values from all compound-free wells that had received both primary and secondary antibodies were averaged to obtain a positive control value. The mean absorbance value from the compound-free wells that had not received the primary antibody was used to provide the negative (background) control value. […]

With `COC(=O)[C@H](C)NP(=O)(OC[C@@H]1C[C@@H](O)[C@H](n2ccc(N)nc2=O)O1)Oc1ccccc1` (some centres unmarked) [Example 2], the half-inhibitory concentration (IC50) – broadly, the concentration needed to halve the response being measured – is below 200 µM.
Under `C[C@H](NP(=O)(OC[C@@H]1C[C@@H](O)[C@H](n2ccc(N)nc2=O)O1)Oc1ccccc1)C(=O)OCc1ccccc1` (some centres unmarked) [Example 3] stands below 200 µM.

The values above are taken from patent US20050009775A1 (priority 2001, published 2005).
